Experimental data published in ChEMBL document CHEMBL1201862, “PubChem BioAssay data set” (2004).
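Grown in 96-well plates, cells were treated for 48 hours with each compound at five concentrations. Insufficient inhibition: endpoint recorded as highest concentration tested. GI50 marks 50% less growth.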 Calls of active or inactive are those of the source. Rule as the data show it: active = GI50 up to about 1.1 µM and inactive = higher.

What was measured:
Assay in all cases: DTP human tumour cell line panel, 48 h
CCRF-CEM = test system: CCRF-CEM
EKVX = test system: EKVX
HCC 2998 = test system: HCC 2998
HL-60 = test system: HL-60
HOP-62 = test system: HOP-62
HOP-92 = test system: HOP-92
Hs-578T = test system: Hs-578T
K562 = test system: K562
MCF7 = test system: MCF7
MDA-N = test system: MDA-N
Malme-3M = test system: Malme-3M
NCI-H460 = test system: NCI-H460
OVCAR-3 = test system: OVCAR-3
OVCAR-8 = test system: OVCAR-8
PC-3 = test system: PC-3
SF-539 = test system: SF-539
SK-MEL-5 = test system: SK-MEL-5
SNB-19 = test system: SNB-19
SNB-75 = test system: SNB-75
UO-31 = test system: UO-31

Measured: GI50

CC1=CC(=O)CC(C)(C)C1(O)/C=C/C(C)=C/C(=O)O (stereo not given)
inactive: CCRF-CEM > 100 µM | EKVX > 100 µM | HCC 2998 > 100 µM | HL-60 > 100 µM | HOP-62 > 100 µM | HOP-92 > 100 µM | Hs-578T > 100 µM | K562 > 100 µM | MCF7 > 100 µM | MDA-N > 100 µM | Malme-3M > 100 µM | NCI-H460 > 100 µM | OVCAR-3 > 100 µM | OVCAR-8 > 100 µM | PC-3 > 100 µM | SF-539 > 100 µM | SK-MEL-5 > 100 µM | SNB-19 > 100 µM | SNB-75 > 100 µM | UO-31 > 100 µM

O=c1[nH]nc(-c2ccccc2)n1/N=C/c1ccc([N+](=O)[O-])cc1
inactive: CCRF-CEM > 100 µM | EKVX > 80.4 µM | HCC 2998 > 45.4 µM | HL-60 > 100 µM | HOP-62 11 µM | HOP-92 10 µM | Hs-578T 17 µM | K562 > 100 µM | MCF7 > 60.1 µM | MDA-N > 100 µM | Malme-3M > 100 µM | NCI-H460 22.9 µM | OVCAR-3 19.7 µM | OVCAR-8 10.2 µM | PC-3 > 100 µM | SF-539 17.1 µM | SK-MEL-5 > 100 µM | SNB-19 7.78 µM | SNB-75 10.4 µM | UO-31 11.2 µM

CC(C)NC(=O)OCc1c(COC(=O)NC(C)C)c(-c2cc[n+](COC(=O)C(C)C)cc2)n2c1CCC2
inactive: CCRF-CEM 39.9 µM | EKVX > 100 µM | HCC 2998 > 100 µM | HL-60 27.8 µM | HOP-62 > 68.4 µM | HOP-92 69.7 µM | Hs-578T > 100 µM | K562 > 100 µM | MCF7 64.4 µM | MDA-N > 100 µM | Malme-3M > 100 µM | NCI-H460 41.6 µM | OVCAR-3 > 100 µM | OVCAR-8 > 100 µM | PC-3 > 59.6 µM | SF-539 17.7 µM | SK-MEL-5 > 100 µM | SNB-19 > 100 µM | SNB-75 > 53.5 µM | UO-31 > 100 µM

NC(=S)NN=Cc1ccccc1OCc1cccc(COc2ccccc2C=NNC(N)=S)n1
inactive: CCRF-CEM > 100 µM | EKVX 10 µM | HCC 2998 > 100 µM | HL-60 > 100 µM | HOP-62 6.56 µM | HOP-92 3.72 µM | Hs-578T 18.1 µM | K562 > 100 µM | MCF7 > 100 µM | MDA-N > 100 µM | Malme-3M > 54.3 µM | NCI-H460 > 58.6 µM | OVCAR-3 42.1 µM | OVCAR-8 6.01 µM | PC-3 > 57.7 µM | SF-539 7.93 µM | SK-MEL-5 > 100 µM | SNB-19 9.89 µM | SNB-75 1.78 µM | UO-31 28.2 µM

COc1cc(OC)c2c(=O)c(OC)c(-c3ccc4c(c3)OCO4)oc2c1OC
inactive: CCRF-CEM 28.5 µM | EKVX 47 µM | HCC 2998 > 100 µM | HL-60 6.82 µM | HOP-62 91.8 µM | HOP-92 4.91 µM | Hs-578T > 100 µM | K562 > 100 µM | MCF7 > 100 µM | MDA-N > 100 µM | Malme-3M > 100 µM | NCI-H460 > 100 µM | OVCAR-3 > 100 µM | OVCAR-8 > 100 µM | PC-3 > 100 µM | SF-539 > 100 µM | SK-MEL-5 23.2 µM | SNB-19 > 100 µM | SNB-75 > 100 µM | UO-31 > 100 µM

CC(=O)O[C@H]1CC[C@@]2(C)C(=CC[C@@H]3[C@@H]2CC[C@]2(C)C(=N/O)/C(=C\c4ccccc4)C[C@@H]32)C1
inactive: CCRF-CEM 17.7 µM | EKVX 4.86 µM | HCC 2998 11.9 µM | HL-60 14.5 µM | HOP-62 16.7 µM | HOP-92 41.1 µM | Hs-578T 22.5 µM | K562 31.2 µM | MCF7 13 µM | MDA-N 4.71 µM | Malme-3M 4.14 µM | NCI-H460 17.5 µM | OVCAR-3 11.3 µM | OVCAR-8 9.71 µM | PC-3 5.96 µM | SF-539 15.9 µM | SK-MEL-5 2.08 µM | SNB-19 > 55 µM | SNB-75 33.6 µM | UO-31 9.06 µM

Cc1ccc([N+](=O)[O-])c2c(NCC(O)CO)ccnc12 (stereo not given)
inactive: CCRF-CEM 83.9 µM | EKVX 19.8 µM | HCC 2998 31.8 µM | HL-60 32.7 µM | HOP-62 73.8 µM | HOP-92 34.8 µM | Hs-578T 7.71 µM | K562 50 µM | MCF7 32.1 µM | MDA-N 42.3 µM | Malme-3M 16.4 µM | NCI-H460 20 µM | OVCAR-3 36.1 µM | OVCAR-8 47 µM | PC-3 70.3 µM | SF-539 19.3 µM | SK-MEL-5 18.6 µM | SNB-19 90.8 µM | SNB-75 > 100 µM | UO-31 74.3 µM

COC(=O)c1cc(C)ccc1CC(Cc1ccccc1C)C(=O)OC (stereo not given)
inactive: CCRF-CEM 14 µM | EKVX 18.7 µM | HCC 2998 34.9 µM | HL-60 13.2 µM | HOP-62 > 100 µM | HOP-92 14.4 µM | Hs-578T 27.9 µM | K562 10.6 µM | MCF7 23.3 µM | MDA-N 28.4 µM | Malme-3M 23.2 µM | NCI-H460 78 µM | OVCAR-3 24.4 µM | OVCAR-8 45.5 µM | PC-3 55.2 µM | SF-539 > 100 µM | SK-MEL-5 14.1 µM | SNB-19 > 100 µM | SNB-75 > 100 µM | UO-31 31 µM

O=S(=O)(Nc1nc2ccccc2nc1N1CCCCCC1)c1ccccc1
inactive: CCRF-CEM 34.5 µM | EKVX 24.5 µM | HCC 2998 11.8 µM | HL-60 23.2 µM | HOP-62 23 µM | HOP-92 7.8 µM | Hs-578T 17.5 µM | K562 > 100 µM | MCF7 28.6 µM | MDA-N > 100 µM | Malme-3M 25.4 µM | NCI-H460 15.7 µM | OVCAR-3 17.1 µM | OVCAR-8 29 µM | PC-3 19.4 µM | SF-539 29.2 µM | SK-MEL-5 14.3 µM | SNB-19 28.2 µM | SNB-75 21 µM | UO-31 12.4 µM

O=C(O)CNCc1c2ccccc2nc2ccccc12
inactive: CCRF-CEM 7.24 µM | EKVX 38.4 µM | HCC 2998 58.6 µM | HL-60 7.64 µM | HOP-62 43.9 µM | HOP-92 15.6 µM | Hs-578T 20.4 µM | K562 8.85 µM | MCF7 27.7 µM | MDA-N 32.4 µM | Malme-3M > 74.5 µM | NCI-H460 39.2 µM | OVCAR-3 38.6 µM | OVCAR-8 32.9 µM | PC-3 27.2 µM | SF-539 29.9 µM | SK-MEL-5 25.7 µM | SNB-19 74 µM | SNB-75 32.8 µM | UO-31 25.2 µM
